According to ChEMBL document CHEMBL5604063, “ASAP - DENV-2 NS2B-NS3 protease fluorescence dose response” (2024):
pIC50: −log10 of the molar value. “And” between values parts separate entries of the source, which are not always exact repeats. Identical values can stand only once.

Legend:
Genome polyprotein [1] = biological target: T1, Genome polyprotein (dengue virus type 2, UniProt P29990); type: functional, Thailand/16681/1984
Genome polyprotein [2] = biological target: T1, Genome polyprotein; type: functional, Thailand/16681/1984; remark: listed apart in the source

T1 sequence (P29990 1346-1475 limits assumed): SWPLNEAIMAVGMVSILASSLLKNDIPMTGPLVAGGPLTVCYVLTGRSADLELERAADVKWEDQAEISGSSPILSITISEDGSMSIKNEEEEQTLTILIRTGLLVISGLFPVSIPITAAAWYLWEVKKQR
T1 sequence (P29990 1476-2093 limits assumed): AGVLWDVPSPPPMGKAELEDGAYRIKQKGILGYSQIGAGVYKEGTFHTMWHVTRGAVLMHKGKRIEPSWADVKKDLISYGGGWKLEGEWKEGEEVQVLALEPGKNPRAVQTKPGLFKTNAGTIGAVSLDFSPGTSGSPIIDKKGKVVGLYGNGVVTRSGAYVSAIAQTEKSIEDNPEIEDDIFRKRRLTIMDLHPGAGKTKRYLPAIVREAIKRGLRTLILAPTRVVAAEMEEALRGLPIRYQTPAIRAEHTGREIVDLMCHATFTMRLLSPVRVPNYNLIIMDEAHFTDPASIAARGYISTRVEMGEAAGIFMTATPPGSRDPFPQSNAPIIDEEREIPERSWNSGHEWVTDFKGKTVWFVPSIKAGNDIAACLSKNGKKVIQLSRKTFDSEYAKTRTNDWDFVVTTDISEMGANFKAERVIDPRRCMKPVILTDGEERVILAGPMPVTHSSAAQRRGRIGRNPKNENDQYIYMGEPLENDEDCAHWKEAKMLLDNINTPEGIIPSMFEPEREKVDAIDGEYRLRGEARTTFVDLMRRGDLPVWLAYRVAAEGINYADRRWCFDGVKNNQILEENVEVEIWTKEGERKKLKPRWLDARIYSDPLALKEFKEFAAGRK

Structure (SMILES) | pIC50 (Genome polyprotein [1]) | pIC50 (Genome polyprotein [2])
CN(c1ccc2c(c1)CNC2)[C@H](C(=O)NCC(F)F)c1cc(Cl)cc(C2CC2)c1 | < 4.00 | < 4.00
CCOC(=O)[C@H](Nc1ccc2c(c1)CNC2)c1cc(Cl)cc(C2CC2)c1 | 4.12 | 4.05
COC1CCN(C(=O)c2ccnc(NC(=O)c3cc(C4CC4)n(C)c3C)c2)CC1 | < 4.00 | < 4.00
O=C(Nc1ccc2c(c1)CNC2)c1cc(F)cc2[nH]c(-c3cnc(C4CC4)o3)nc12 | < 4.30 | < 4.00
O=C(NCC(F)F)[C@H](Nc1ccc2c(c1)CNC2)c1cc(Cl)ccc1Sc1ccccc1 | < 4.00 | < 4.00
Cc1c(C(=O)Nc2cc(C(=O)N[C@H]3CNC(=O)C3)ccn2)cc(C2CC2)n1C | < 4.00 | < 4.00
Cc1c(C(=O)Nc2cc(C(=O)N3CCC[C@H]3C(N)=O)ccn2)cc(C2CC2)n1C | < 4.00 | < 4.00
COC1CN(C(=O)c2ccnc(NC(=O)c3cc(C4CC4)n(C)c3C)c2)C1 | < 4.00 | < 4.00
Cc1cc(C(=O)Nc2ccc3c(c2)CNC3)cc2nc[nH]c12 | < 4.00 | < 4.00
O=C(Nc1ccc2c(c1)CNC2)c1ccc2[nH]cc(C3CCNCC3)c2c1 | 4.71 and 4.50 | 4.12
C[C@]1(OCCCO)C(=O)Nc2cc(F)cc(C(=O)Nc3ccc4c(c3)CNC4)c21 | < 4.00 | < 4.00
COCc1cc(Cl)cc([C@H](Nc2ccc3c(c2)CNC3)C(=O)NCC(F)F)c1 | < 4.00 | < 4.00
O=C(NCC(F)F)[C@H](Nc1ccc2c(c1)CNC2)c1cc(Cl)ccc1Cl | < 4.00 | < 4.00
N#Cc1ccc(-c2nc3c(C(=O)Nc4ccc5c(c4)CNC5)cc(F)cc3[nH]2)cc1 | 5.54 and 5.60 | 4.95 and 4.99
O=C(Nc1cc(-c2cccnc2)ccn1)c1cc(C2CC2)[nH]c(=O)c1 | < 4.00 | < 4.00
C=CC[C@H]1c2ccc(NC(=O)c3cc(Br)cc4[nH]ccc34)cc2CN1C(=O)OC(C)(C)C | < 4.00 | < 4.00
CCNC(=O)c1ccnc(NC(=O)c2cc(C3CC3)n(C)c2C)c1 | < 4.00 | < 4.00
O=C(Nc1cnc2c(c1)CNC2)c1cc(F)cc2[nH]ncc12 | 4.44 | 4.33 and 4.30
O=C1Cc2c(cccc2C(=O)N[C@H]2COc3cc(Br)cnc32)N1 | < 4.00 | < 4.00
O=C(NCC(F)F)[C@H](Nc1ccc2c(c1)CNC2)c1cccc(Cl)c1 | < 4.00 | < 4.00
CC(C)CO[C@]1(C)C(=O)Nc2cc(F)cc(C(=O)Nc3ccc4c(c3)CNC4)c21 | < 4.00 | < 4.00

Structure (SMILES) | pIC50 (Genome polyprotein [1]) | pIC50 (Genome polyprotein [2])
O=C1Cc2c(cccc2C(=O)Nc2ccn(C[C@H]3CCOC3)n2)N1 | < 4.00 | < 4.00
Cc1cc(C(=O)Nc2ccc3c(c2)CNC3)cc2nn[nH]c12 | < 4.00 | < 4.00
CC(C)c1nnc(-c2nc3c(C(=O)Nc4ccc5c(c4)CNC5)cc(F)cc3[nH]2)s1 | 4.45 and 4.46 | 4.19 and 4.17
Cc1cc(N2CCC(NC(=O)c3cccc4c3CC(=O)N4)CC2)[nH]n1 | < 4.00 | < 4.00
N[C@H]1COC[C@H]1n1cc(C(=O)Nc2cc(-c3cccnc3)ccn2)cn1 | < 4.00 | < 4.00
COc1ccc(-c2nc3c(C(=O)Nc4ccc5c(c4)CNC5)cc(F)cc3[nH]2)nn1 | 4.94 and 4.72 and 5.08 | 4.49 and 4.72 and 4.42 and 4.44
Cc1c(C(=O)Nc2cc(C(=O)N[C@H]3CCOC3)ccn2)cc(C2CC2)n1C | < 4.00 | < 4.00
Cc1c(C(=O)Nc2cc(C(=O)N3C[C@@H]4[C@H](O)[C@@H]4C3)ccn2)cc(C2CC2)n1C | < 4.00 | < 4.00
Cc1c(C(=O)Nc2cc(C(=O)N3CC[C@H](C(N)=O)C3)ccn2)cc(C2CC2)n1C | < 4.00 | < 4.00
CCOCC1(c2nc3c(C(=O)Nc4ccc5c(c4)CNC5)cc(F)cc3[nH]2)CC1 | < 4.00 | < 4.00
O=C1Cc2c(cccc2C(=O)NC2CCC3(CC2)COC3)N1 | < 4.00 | < 4.00
O=C1Cc2c(cccc2C(=O)N[C@H]2C[C@@H](c3ncc[nH]3)C2)N1 | < 4.00 | < 4.00
Cc1c(C(=O)Nc2cc(C(=O)N[C@H]3CCNC3=O)ccn2)cc(C2CC2)n1C | < 4.00 | < 4.00
Cc1c(C(=O)Nc2cc(C(=O)N3CC[C@H]3CO)ccn2)cc(C2CC2)n1C | < 4.00 | < 4.00
COc1cc(Cl)cc([C@H](Nc2ccc3c(c2)CNC3)C(=O)NCC(F)F)c1 | < 4.00 | < 4.00
Cc1c(C(=O)Nc2cc(C(=O)N(C)C3COC3)ccn2)cc(C2CC2)n1C | < 4.00 | < 4.00
CC(C)n1cnc2cc(C(=O)Nc3ccc4c(c3)CNC4)ccc21 | < 4.00 | < 4.00
O=C1Cc2c(cccc2C(=O)NC2CCN(c3nccs3)CC2)N1 | < 4.00 | < 4.00
Cc1c(C(=O)Nc2cc(C(=O)Nc3cccnc3)ccn2)cc(C2CC2)n1C | < 4.00 | < 4.00
O=C(NCC(F)F)[C@H](Nc1ccc2c(c1)CNC2)c1cccc2c1CCC2 | < 4.00 | < 4.00
